Laboratory results reported in patent publication US4894392A, “Aminoalkyl naphthalenediols as host resistance enhancers” (priority 1988, dated 1990).
Where a name gives a salt, the structure may show the parent alone.

Tested on: Pseudomonas aeruginosa
Assay: In vivo immunopotentiation against challenge with lethal doses of Pseudomonas aeruginosa (cyclophosphamide-immunocompromised mouse model)
Design: species or system random outbred albino CF1 female mice
Details: for Relative No. LD50's (Protective Index: number of LD50's of protection of treated animals over the LD50 of CY controls): CY 250 mg/kg i.p. 4 days before P. aeruginosa challenge, test compound injected once, 2 hours after CY
Description: An immunocompromised mouse model, established by intraperitoneal treatment of random outbred albino CF1 female mice (ca. 25 g) with 250 mg/kg body weight of cyclophosphamide (CY) 4 days prior to bacterial challenge with Pseudomonas aeruginosa, was used as the assay system. In this model, test compounds were injected only once (2 hours) after CY treatment. After bacterial challenge, LD50 's (50% lethal doses) were determined. Increased LD50 's in treated mice over controls indicated a return to normality. The LD50 for untreated or vehicle-treated mice was routinely 10^6 -10^7 colony forming units (CFU) of P. aeruginosa organisms. After CY treatment, the LD50 was reduced to 10^1 to 10^2 CFU's. The protection afforded by test compound (Protective Index) was determined by calculating the number of LD50 's of protection of treated animals over the LD50 of CY controls.

CC(C)(C)C1CCC(NCc2ccc3c(CNC4CCC(C(C)(C)C)CC4)c(O)ccc3c2O)CC1 (mixture of isomers) [Example 3, 1,6-Dihydroxy-2,5-bis-(4-tert-butylcyclohexylaminomethyl)-naphthalene dihydrochloride (mixture of isomers)]
Relative No. LD50's (Protective Index: number of LD50's of protection of treated animals over the LD50 of CY controls): 2128

CC1CCCCC1NCc1ccc2c(CNC3CCCCC3C)c(O)ccc2c1O (mixture of isomers) [Example 5, 1,6-Dihydroxy-2,5-bis-(2-methylcyclohexylaminomethyl)-naphthalene dihydrochloride (mixture of isomers)]
Relative No. LD50's (Protective Index: number of LD50's of protection of treated animals over the LD50 of CY controls): 133

CC1CCCC(NCc2ccc3c(CNC4CCCC(C)C4)c(O)ccc3c2O)C1 (mixture of isomers) [Example 6, 1,6-Dihydroxy-2,5-bis-(3-methylcyclohexylaminomethyl)-naphthalene dihydrochloride (mixture of isomers)]
Relative No. LD50's (Protective Index: number of LD50's of protection of treated animals over the LD50 of CY controls): 151

CC(C)(C)C1CCC(NCc2ccc3c(CNC4CCC(C(C)(C)C)CC4)c(O)ccc3c2O)CC1.Cl.Cl (single isomer, unassigned) [Example 4, 1,6-Dihydroxy-2,5-bis-(4-tert-butylcyclohexylaminomethyl)-naphthalene dihydrochloride (single isomer)]
Relative No. LD50's (Protective Index: number of LD50's of protection of treated animals over the LD50 of CY controls): 1000 | LD50 raised over untreated controls (cyclophosphamide-immune compromised mouse, P. aeruginosa lethal challenge): 1000 fold

Cl.Cl.Oc1ccc2c(O)c(CNCC3CCCCC3)ccc2c1CNCC1CCCCC1 [Example 2, 1,6-Dihydroxy-2,5-bis-(cyclohexylmethylaminomethyl)-naphthalene dihydrochloride]
Relative No. LD50's (Protective Index: number of LD50's of protection of treated animals over the LD50 of CY controls): 320

C[C@H]1CC[C@H](NCc2ccc3c(CN[C@H]4CC[C@H](C)CC4)c(O)ccc3c2O)CC1.Cl.Cl [Example 7, 1,6-Dihydroxy-2,5-bis-(trans-4-methylcyclohexylaminomethyl)-naphthalene dihydrochloride]
Relative No. LD50's (Protective Index: number of LD50's of protection of treated animals over the LD50 of CY controls): 1000
